6 molecules from ChEMBL document CHEMBL5360670, “Novel Dihydroorotate Dehydrogenase Inhibitors for Treating Acute Myelogenous Leukemia” (ACS Med Chem Lett, 2023) can be followed below.

Each structure is given as a SMILES string.

Broadly, the IC50 is the concentration that gives 50% inhibition.

The target in one experiment is Dihydroorotate dehydrogenase (quinone), mitochondrial (Homo sapiens, UniProt Q02127). The experiment is described as follows: Inhibition of human DHODH using dihydroorotate and CoQ6 as substrate by DCIP dye based spectrophotometry analysis.
Dihydroorotate dehydrogenase (quinone), mitochondrial, sequence (Q02127 whole entry): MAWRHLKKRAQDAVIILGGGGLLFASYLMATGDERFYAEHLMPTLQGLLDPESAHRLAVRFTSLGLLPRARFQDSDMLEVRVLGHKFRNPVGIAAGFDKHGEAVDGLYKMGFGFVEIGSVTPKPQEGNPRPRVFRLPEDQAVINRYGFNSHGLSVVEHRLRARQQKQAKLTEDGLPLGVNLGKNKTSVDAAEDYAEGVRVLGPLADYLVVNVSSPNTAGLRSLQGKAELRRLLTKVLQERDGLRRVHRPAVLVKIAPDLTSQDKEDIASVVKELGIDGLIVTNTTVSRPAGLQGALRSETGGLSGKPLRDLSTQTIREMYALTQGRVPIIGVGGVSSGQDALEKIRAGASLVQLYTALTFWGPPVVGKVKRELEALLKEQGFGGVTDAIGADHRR
Settings: not given
With `[2H]C([2H])([2H])n1cc(-c2cc3c(C(C)C)cn(-c4ccccc4C)c(=O)c3cc2F)nc1C(C)(C)O`, the IC50 amounted to 0.54 nM.

Another experiment has as its system MOLM-13. Kind of experiment: Cytotoxicity against human MOLM-13 cells assessed as reduction in cell viability incubated for 72 hrs by Celltiter-glo luminescent assay. It is filed as functional, cell-based. As to conditions: MOLM-13, 72 h. A general note: Cellular ATP, detected with luciferase, serves as a proxy for viable cell number.
As for `Cc1ccccc1-n1cc(C(C)C)c2cc(-c3ccc(C)c(N)n3)c(F)cc2c1=O`, the IC50 is 0.02 nM.

In the case of `Cc1ccccc1-n1nc(C(C)C)c2cc(-c3cn(C)c(C(C)(C)O)n3)c(F)cc2c1=O`, the IC50 amounted to 0.09 nM. With `Cc1ccccc1-n1cc(C(C)C)c2cc(-c3cn(C)c(C(C)(C)O)n3)c(F)cc2c1=O`, the IC50 is 0.08 nM. On the same count and under the same terms, in the case of `Cc1ccccc1-n1cc(C(C)C)c2cc(-c3cn(C)c([C@@H](C)O)n3)c(F)cc2c1=O` it was 0.1 nM; in that of `[2H]C([2H])([2H])n1cc(-c2cc3c(C(C)C)cn(-c4ccccc4C)c(=O)c3cc2F)nc1C(C)(C)O`, 0.04 nM. Consider `Cc1ccccc1-n1cc(C(C)C)c2cc(-c3nc(C(C)(C)O)n(C)n3)c(F)cc2c1=O`, for which the IC50 amounted to 0.08 nM.
